Measured values reported in patent publication US8231891B2, “Implantable drug depot for weight control” (Warsaw Orthopedic, Inc., priority 2009, dated 2012).

Legend:
[1] = long term use of the drug; cited from earlier work
[2] = Weight gain of rats receiving fluocinolone by daily subcutaneous injection; assay type: in vivo, Wistar rats; details: FIG. 39; systemic subcutaneous injection, 25 ug/kg daily for 22 days
Method: Forty Wistar rats were utilized in this study. The forty rats were divided into 4 groups. Group 1 rats (10 in total) each received fluocinolone acetonide via systemic subcutaneous injection at a dosage of 0.5 ug/kg daily. Group 2 rats (10 in total) each received fluocinolone acetonide via systemic subcutaneous injection at a dosage of 5 ug/kg daily. Group 3 rats (10 in total) each received fluocinolone acetonide via systemic subcutaneous injection at a dosage of 25 ug/kg daily. Group 4 rats (10 in total) were the control in this study and received saline injections.

| SMILES | average weight loss [1] [lbs] | body weight increase compared to control rats (saline) [2] |
| --- | --- | --- |
| Cc1c(C(=O)NN2CCCCC2)nn(-c2ccc(Cl)cc2Cl)c1-c1ccc(Cl)cc1 [Rimonabant] | 10.4 | – |
| CC1(C)O[C@@H]2C[C@H]3[C@@H]4C[C@H](F)C5=CC(=O)C=C[C@]5(C)[C@@]4(F)[C@@H](O)C[C@]3(C)[C@]2(C(=O)CO)O1 [fluocinolone acetonide, 6α-,9α-Difluoro-16 α-hydroxyprednisolone 16,17-acetonide] | – | did not exhibit as much body weight increase as control rats |
| CC(C)CC(N(C)C)C1(c2ccc(Cl)cc2)CCC1 (stereo not shown) [Sibutramine] | 9.3 | – |
| CCCCCCCCCCC[C@@H](C[C@@H]1OC(=O)[C@H]1CCCCCC)OC(=O)[C@H](CC(C)C)NC=O [Orlistat] | 6.4 | – |
